Reference: patent US20090221624A1, “4-AMINOQUINOLINE COMPOUNDS FOR TREATING VIRUS-RELATED CONDITIONS” (priority 2005, published 2009)

Assays:
[1] = tested on: HCV replicon (Clone A cells, Huh7, subgenomic hepatits C virus RNA); assay: HCV Neo screening assay (HCV replicon, NPTII ELISA); type: cell-based, hepatitis C virus; conditions: for EC50 / inhibition at 25 µM: Hepatitis C virus, Huh-7; for EC50: Secondary Data, HCV; for inhibition at 25 µM: primary screening, 25 μM final concentration, 24 hours, percent inhibition of viral replication, read-out: HCV Inh; for HCV TI: therapeutic index CC50/EC50, HCV
[2] = tested on: RSV minigenome; assay: RSV minigenome-dependent β-galactosidase expression assay (RSV β-Gal); type: cell-based, respiratory syncytial virus; conditions: for EC50 / inhibition at 25 µM: human respiratory syncytial virus; for EC50: Secondary Data, RSV, read-out: RSV EC50; for inhibition at 25 µM: primary screening, 25 μM final concentration, 24 hours, percent inhibition of viral replication, read-out: RSV Inh; for RSV TI: therapeutic index CC50/EC50, RSV
[3] = tested on: WNV (WN-hRuPac cells); assay: WNV antiviral activity, WN-hRuPac cells, Renilla luciferase; type: cell-based, West Nile virus; conditions: for EC50 / inhibition at 25 µM: West Nile virus; for EC50: Secondary Data, WNV, read-out: WNV EC50; for inhibition at 25 µM: primary screening, 25 μM final concentration, 24 hours, percent inhibition of viral replication, read-out: WNV Inh; for WNV TI: therapeutic index CC50/EC50, WNV
[4] = tested on: YFV (YF-hRuPac cells); assay: microbe, parasite or virus in culture; type: cell-based, yellow fever virus; conditions: for inhibition at 25 µM / EC50: Yellow fever virus; for inhibition at 25 µM: 24 h, read-out: YFV Inh; for EC50: read-out: YFV EC50
[5] = tested on: DNG (D2-hRuPac cells); assay: DNG antiviral activity, D2-hRuPac cells, Renilla luciferase; type: cell-based, Dengue fever virus; conditions: Dengue virus, secondary screening
[6] = tested on: EBOV minigenome; assay: microbe, parasite or virus in culture; type: cell-based, Ebola virus; conditions: Zaire ebolavirus; for inhibition at 25 µM: 24 h, read-out: EBOV Inh; for EC50: read-out: EBOV EC50
[7] = tested on: SINV (SR19-F-luc cells); assay: SINV antiviral activity, SR19-F-luc cells, Firefly luciferase; type: cell-based; conditions: Sindbis virus; for inhibition at 25 µM: primary screening, 25 μM final concentration, 24 hours, percent inhibition of viral replication, read-out: SINV Inh; for EC50: secondary screening, SR19-F-luc cells
[8] = in vitro

Structure (SMILES) | inhibition at 25 µM [1] [%] | EC50 [2] [nM] | inhibition at 25 µM [2] [%] | RSV TI [2] | EC50 [3] [µM] | inhibition at 25 µM [3] [%] | inhibition at 25 µM [4] [%] | EC50 [4] [µM] | EC50 [5] [µM] | inhibition at 25 µM [6] [%] | EC50 [6] [µM] | inhibition at 25 µM [7] [%] | EC50 [7] [µM] | CC50 ([8]; DNG CC50) [µM] | CC50 ([8]; EBOV CC50) [µM] | CC50 ([8]; HCV CC50) [µM] | CC50 ([8]; RSV CC50) [µM] | CC50 ([8]; SINV CC50) [µM] | CC50 ([8]; WNV CC50) [µM] | CC50 ([8]; YFV CC50) [µM] | further results
COC(=O)c1ccc(Nc2cc(C)nc3cc(Cl)ccc23)cc1 [Compound 14] | 81.2 | 36900 | 48.4 | 1.46 | ≥ 75 | 51.6 | 54.6 | 9.23 | 54.3 | -19.5 | 65.6 | 56.7 | 17.6 | 53.7 | 53.7 | ≥ 75 | 53.7 | 53.7 | 53.7 | 53.7 | EC50 [1]: 1300 nM; HCV TI [1]: 57.69; WNV TI [3]: 0.72; YFV TI [4]: 5.82
CCOC(=O)c1cnc2ccc(OCC)cc2c1Nc1ccc(I)cc1 [Compound 32] | -11.1 | 3500 | 48.3 | 21.43 | ≥ 75 | -2.69 | -16.9 | ≥ 75 | ≥ 75 | 31.9 | 75 | -17.6 | ≥ 75 | ≥ 75 | ≥ 75 | ≥ 75 | ≥ 75 | ≥ 75 | ≥ 75 | ≥ 75 | –
COc1ccc2nc(C)cc(Nc3ccc(OCc4ccccc4Cl)cc3)c2c1 [Compound 43] | 95.4 | 2240 | 100 | 11.63 | 5.45 | 99.9 | 100 | 1.41 | 1.65 | 98.7 | 75 | 99.7 | 4.08 | 26.1 | 26.1 | 2.09 | 26.1 | 26.1 | 26.1 | 26.1 | EC50 [1]: 1600 nM; HCV TI [1]: 1.31; WNV TI [3]: 4.78; YFV TI [4]: 18.48
COC(=O)c1ccc(Nc2cc(C)nc3c(C)cccc23)cc1 [Compound 61] | 80.1 | 32100 | 58.7 | 1.43 | 22.3 | 96.9 | 97.7 | 10.1 | 14.1 | 40.9 | 70.6 | 37.5 | 17.3 | 45.9 | 45.9 | 46.5 | 45.9 | 45.9 | 45.9 | 45.9 | EC50 [1]: 750 nM; HCV TI [1]: 61.93; WNV TI [3]: 2.06; YFV TI [4]: 4.54
CCOC(=O)c1cnc2c(OC)cccc2c1NCC(C)O (stereo not shown) [Compound 69] | 19.8 | 2210 | 98.3 | 15.67 | 13.7 | 44.6 | 70.1 | 25.7 | 44 | 64.4 | 57.6 | 60.9 | 37.1 | 34.6 | 34.6 | ≥ 75 | 34.6 | 34.6 | 34.6 | 34.6 | WNV TI [3]: 2.53; YFV TI [4]: 1.35
CCOC(=O)c1cnc2c(C)cc(C)cc2c1NCc1ccco1 [Compound 35] | 67.5 | 1040 | 89.9 | 35.77 | 2.52 | 104 | 98.7 | 3.03 | 11.1 | 75.2 | 6.64 | 44.9 | ≥ 75 | 37.2 | 37.2 | 53 | 37.2 | 37.2 | 37.2 | 37.2 | EC50 [1]: 8350 nM; HCV TI [1]: 6.34; WNV TI [3]: 14.76; YFV TI [4]: 12.28
Cc1cc(Nc2cccc(C(F)(F)F)c2)c2cc(Cl)ccc2n1 [Compound 40] | 96.1 | 2430 | 99.3 | 24.68 | 8.39 | 65.6 | 79.6 | 6.45 | 40.6 | 26.3 | 75 | 69.5 | 14.4 | 60 | 60 | 5.53 | 60 | 60 | 60 | 60 | EC50 [1]: 5550 nM; HCV TI [1]: 1; WNV TI [3]: 7.15; YFV TI [4]: 9.3
C=CCNc1c2c(nc3ccccc13)CCC2 [Compound 12] | 10.3 | 6420 | 31 | 11.17 | 19.5 | 47.5 | 31.3 | 61.2 | 69.2 | 49.8 | 45.4 | 69.4 | 6.89 | 71.7 | 71.7 | 71 | 71.7 | 71.7 | 71.7 | 71.7 | WNV TI [3]: 3.68; YFV TI [4]: 1.17
